Measured values published in patent publication US20240376084A1, “INHIBITORS OF ALPHA-HEMOLYSIN OF STAPHYLOCOCCUS AUREUS” (Helmholtz-Zentrum Fur Infektionsforschung GmbH, priority 2021, published 2024).

Columns and labels:
[1] = target: hemolysin alpha from Staphylococcus aureus (Staphylococcus aureus, UniProt P09616); test: cell-based
[2] = target: S. aureus Alpha hemolysin (Staphylococcus aureus, UniProt P09616); test: cell-based
Sequence of S. aureus Alpha hemolysin (P09616 27-319 limits assumed): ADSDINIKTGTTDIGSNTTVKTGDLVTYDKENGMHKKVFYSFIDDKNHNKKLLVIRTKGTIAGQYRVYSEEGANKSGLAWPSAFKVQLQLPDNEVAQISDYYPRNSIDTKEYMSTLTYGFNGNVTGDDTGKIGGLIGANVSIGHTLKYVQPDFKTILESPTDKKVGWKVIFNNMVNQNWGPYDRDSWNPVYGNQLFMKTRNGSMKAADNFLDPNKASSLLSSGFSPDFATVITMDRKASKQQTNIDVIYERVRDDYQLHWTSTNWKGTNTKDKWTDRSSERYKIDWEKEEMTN

Sequence of hemolysin alpha from Staphylococcus aureus (P09616 27-319 limits assumed): as above

Row | SMILES | IC50 [1] [nM] | EC50 ([2]; A549-LDH Assay activity) [nM] | EC50 [1] [nM] | EC50 ([2]; LDH Assay EC50) [nM]
1 | O=c1[nH]c2cc(Cl)c(S(=O)(=O)Nc3ccc(-c4ccccc4)c(Cl)c3)cc2[nH]c1=O [Compound 14, 7-chloro-N-(2-chloro-[1,1′-biphenyl]-4-yl)-2,3-dioxo-1,2,3,4-tetrahydroquinoxaline-6-sulfonamide] | < 30 | 100 to 1000 | – | –
2 | O=c1[nH]c2cc(Cl)c(S(=O)(=O)Nc3ccc(Br)c(Cl)c3)cc2[nH]c1=O [Compound 144, N-(4-bromo-3-chlorophenyl)-7-chloro-2,3-dioxo-1,2,3,4-tetrahydroquinoxaline-6-sulfonamide] | 100 to 1000 | 1000 to 6000 | – | –
3 | Cc1cc2[nH]c(=O)c(=O)[nH]c2cc1S(=O)(=O)Nc1ccc(-c2cc(Cl)cc(Cl)c2)c(Cl)c1 [Compound 315, N-[3-chloro-4-(3,5-dichlorophenyl)phenyl]-7-methyl-2,3-dioxo-1,4-dihydroquinoxaline-6-sulfonamide] | – | 1000 to 6000 | 100 to 1000 | –
4 | O=c1[nH]c2cc(Cl)c(S(=O)(=O)Nc3ccc4ccccc4c3)cc2[nH]c1=O [Compound 172, 7-chloro-N-(naphthalen-2-yl)-2,3-dioxo-1,2,3,4-tetrahydroquinoxaline-6-sulfonamide] | 100 to 1000 | 100 to 1000 | – | –
5 | Cc1cc2[nH]c(=O)c(=O)[nH]c2cc1S(=O)(=O)Nc1ccc(-c2ccc3c(c2)CCN3C)c(Cl)c1 [Compound 341, N-[3-chloro-4-(1-methylindolin-5-yl)phenyl]-7-methyl-2,3-dioxo-1,4-dihydroquinoxaline-6-sulfonamide] | – | 1000 to 6000 | 100 to 1000 | –
6 | Cc1cc2[nH]c(=O)c(=O)[nH]c2cc1S(=O)(=O)Nc1ccc(C(C)C)cc1 [Compound 76, N-(4-isopropylphenyl)-7-methyl-2,3-dioxo-1,2,3,4-tetrahydroquinoxaline-6-sulfonamide] | 100 to 1000 | 100 to 1000 | – | –
7 | C#Cc1cc(NS(=O)(=O)c2cc3[nH]c(=O)c(=O)[nH]c3cc2C)ccc1-c1ccc2oc(C)nc2c1 [Compound 373, N-[3-ethynyl-4-(2-methyl-1,3-benzoxazol-5-yl)phenyl]-7-methyl-2,3-dioxo-1,4-dihydroquinoxaline-6-sulfonamide] | – | < 30 | < 30 | –
8 | CCc1cc2[nH]c(=O)c(=O)[nH]c2cc1S(=O)(=O)Nc1ccc(OC(F)(F)F)cc1 [Compound 20, 7-ethyl-2,3-dioxo-N-(4-(trifluoromethoxy)phenyl)-1,2,3,4-tetrahydroquinoxaline-6-sulfonamide] | < 30 | 30 to 100 | – | –
9 | Cc1cc2[nH]c(=O)c(=O)[nH]c2cc1S(=O)(=O)Nc1ccc(-c2ccc(F)cc2)c(N2CCOCC2)c1 [Compound 250, N-[4-(4-fluorophenyl)-3-morpholino-phenyl]-7-methyl-2,3-dioxo-1,4-dihydroquinoxaline-6-sulfonamide] | – | 1000 to 6000 | 100 to 1000 | –
10 | CCOc1cc2[nH]c(=O)c(=O)[nH]c2cc1S(=O)(=O)Nc1ccc(OC(F)(F)F)cc1 [Compound 278, 7-ethoxy-2,3-dioxo-N-[4-(trifluoromethoxy)phenyl]-1,4-dihydroquinoxaline-6-sulfonamide] | – | < 30 | 100 to 1000 | –
11 | Cc1cc2[nH]c(=O)c(=O)[nH]c2cc1S(=O)(=O)Nc1ccc(-c2ccc3cccnc3c2)c(Cl)c1 [Compound 351, N-[3-chloro-4-(7-quinolyl)phenyl]-7-methyl-2,3-dioxo-1,4-dihydroquinoxaline-6-sulfonamide] | – | 100 to 1000 | < 30 | –
12 | COc1cc2[nH]c(=O)c(=O)[nH]c2cc1S(=O)(=O)Nc1ccc(OC(F)F)cc1 [Compound 391, N-[4-(difluoromethoxy)phenyl]-7-methoxy-2,3-dioxo-1,4-dihydroquinoxaline-6-sulfonamide] | – | 100 to 1000 | 1000 to 3500 | –
13 | COc1ccc(-c2ccc(NS(=O)(=O)c3cc4[nH]c(=O)c(=O)[nH]c4cc3C)cc2Cl)c(F)c1 [Compound 261, N-[3-chloro-4-(2-fluoro-4-methoxy-phenyl)phenyl]-7-methyl-2,3-dioxo-1,4-dihydroquinoxaline-6-sulfonamide] | – | 30 to 100 | < 30 | –
14 | Cc1cc2[nH]c(=O)c(=O)[nH]c2cc1S(=O)(=O)Nc1ccc(-c2ccc3c(c2)OCCN3C)c(Cl)c1 [Compound 329, N-[3-chloro-4-(4-methyl-2,3-dihydro-1,4-benzoxazin-7-yl)phenyl]-7-methyl-2,3-dioxo-1,4-dihydroquinoxaline-6-sulfonamide] | – | 1000 to 6000 | 100 to 1000 | –
15 | O=c1[nH]c2cc(Cl)c(S(=O)(=O)Nc3ccc(-c4ccccc4F)c(Cl)c3)cc2[nH]c1=O [Compound 25, 7-chloro-N-(2-chloro-2′-fluoro-[1,1′-biphenyl]-4-yl)-2,3-dioxo-1,2,3,4-tetrahydroquinoxaline-6-sulfonamide] | < 30 | 100 to 1000 | – | –
16 | Cc1cc2[nH]c(=O)c(=O)[nH]c2cc1S(=O)(=O)Nc1ccc(-c2cccc(N3CCC3)c2)c(Cl)c1 [Compound 206, N-(3′-(azetidin-1-yl)-2-chloro-[1,1′-biphenyl]-4-yl)-7-methyl-2,3-dioxo-1,2,3,4-tetrahydroquinoxaline-6-sulfonamide] | – | 30 to 100 | < 30 | –

Row | SMILES | IC50 [1] [nM] | EC50 ([2]; A549-LDH Assay activity) [nM] | EC50 [1] [nM] | EC50 ([2]; LDH Assay EC50) [nM]
17 | Cc1cc2[nH]c(=O)c(=O)[nH]c2cc1S(=O)(=O)Nc1ccc(-c2ccc(C#N)cc2)c(C(F)(F)F)c1 [Compound 348, N-[4-(4-cyanophenyl)-3-(trifluoromethyl)phenyl]-7-methyl-2,3-dioxo-1,4-dihydroquinoxaline-6-sulfonamide] | – | 100 to 1000 | < 30 | –
18 | COc1cc2[nH]c(=O)c(=O)[nH]c2cc1S(=O)(=O)Nc1ccc(SC(F)(F)F)cc1 [Compound 399, 7-methoxy-2,3-dioxo-N-[4-(trifluoromethylsulfanyl)phenyl]-1,4-dihydroquinoxaline-6-sulfonamide] | – | 100 to 1000 | 1000 to 3500 | –
19 | Cc1cc2[nH]c(=O)c(=O)[nH]c2cc1S(=O)(=O)Nc1ccc(-c2ccccc2)c(Cl)c1 [Compound 1, N-(2-chloro-[1,1′-biphenyl]-4-yl)-7-methyl-2,3-dioxo-1,2,3,4-tetrahydroquinoxaline-6-sulfonamide] | < 30 | 30 to 100 | – | –
20 | Cc1cc2[nH]c(=O)c(=O)[nH]c2cc1S(=O)(=O)Nc1ccc(-c2cccc(S(C)(=O)=O)c2)c(Cl)c1 [Compound 313, N-[3-chloro-4-(3-methylsulfonylphenyl)phenyl]-7-methyl-2,3-dioxo-1,4-dihydroquinoxaline-6-sulfonamide] | – | 100 to 1000 | 100 to 1000 | –
21 | CC(=O)Nc1cc(-c2ccc(NS(=O)(=O)c3cc4[nH]c(=O)c(=O)[nH]c4cc3C)cc2C(F)(F)F)ccc1O [Compound 346, N-[2-hydroxy-5-[4-[(7-methyl-2,3-dioxo-1,4-dihydroquinoxalin-6-yl)sulfonylamino]-2-(trifluoromethyl)phenyl]phenyl]acetamide] | – | 100 to 1000 | 30 to 100 | –
22 | Cc1ccccc1-c1ccc(NS(=O)(=O)c2cc3[nH]c(=O)c(=O)[nH]c3cc2C)cc1C [Compound 103, N-(2,2′-dimethyl-[1,1′-biphenyl]-4-yl)-7-methyl-2,3-dioxo-1,2,3,4-tetrahydroquinoxaline-6-sulfonamide] | 100 to 1000 | 100 to 1000 | – | –
23 | Cc1cc2[nH]c(=O)c(=O)[nH]c2cc1S(=O)(=O)Nc1ccc(N2CCOC[C@H]2C)c(Cl)c1 [Compound 243, (R)-N-(3-chloro-4-(3-methylmorpholino)phenyl)-7-methyl-2,3-dioxo-1,2,3,4-tetrahydroquinoxaline-6-sulfonamide] | – | 100 to 1000 | 1000 to 3500 | –
24 | O=c1[nH]c2cc(Cl)c(S(=O)(=O)Nc3ccc(-c4ccncc4)c(Cl)c3)cc2[nH]c1=O [Compound 94, 7-chloro-N-(3-chloro-4-(pyridin-4-yl)phenyl)-2,3-dioxo-1,2,3,4-tetrahydroquinoxaline-6-sulfonamide] | 100 to 1000 | 100 to 1000 | – | –
25 | Cc1cc2[nH]c(=O)c(=O)[nH]c2cc1S(=O)(=O)Nc1ccc(C2CC2)cc1 [drawing 470 (R^2 = CH3)] | – | – | 63 | 18
26 | [2H]C([2H])([2H])c1cc2[nH]c(=O)c(=O)[nH]c2cc1S(=O)(=O)Nc1cnc(-c2ccc(F)cc2)c(Cl)c1 [Compound 392, N-[5-chloro-6-(4-fluorophenyl)-3-pyridyl]-2,3-dioxo-7-(trideuteriomethyl)-1,4-dihydroquinoxaline-6-sulfonamide] | – | 100 to 1000 | 30 to 100 | –
27 | C#Cc1cc(NS(=O)(=O)c2cc3[nH]c(=O)c(=O)[nH]c3cc2C)ccc1-c1ccc(C#N)cc1 [Compound 253, N-[4-(4-cyanophenyl)-3-ethynyl-phenyl]-7-methyl-2,3-dioxo-1,4-dihydroquinoxaline-6-sulfonamide] | – | 30 to 100 | < 30 | –
28 | Cc1cc2[nH]c(=O)c(=O)[nH]c2cc1S(=O)(=O)Nc1ccc(-c2cn(C)c3ccccc23)c(Cl)c1 [Compound 340, N-[3-chloro-4-(1-methylindol-3-yl)phenyl]-7-methyl-2,3-dioxo-1,4-dihydroquinoxaline-6-sulfonamide] | – | 1000 to 6000 | 100 to 1000 | –
29 | CCO/C=C/c1ccc(NS(=O)(=O)c2cc3[nH]c(=O)c(=O)[nH]c3cc2C)cc1Cl [Compound 293, N-[3-chloro-4-[(E)-2-ethoxyvinyl]phenyl]-7-methyl-2,3-dioxo-1,4-dihydroquinoxaline-6-sulfonamide] | – | 1000 to 6000 | 100 to 1000 | –
30 | C#Cc1cc(NS(=O)(=O)c2cc3[nH]c(=O)c(=O)[nH]c3cc2C)ccc1-c1ccccc1 [Compound 252, N-(3-ethynyl-4-phenyl-phenyl)-7-methyl-2,3-dioxo-1,4-dihydroquinoxaline-6-sulfonamide] | – | 30 to 100 | < 30 | –
31 | Cc1cc2[nH]c(=O)c(=O)[nH]c2cc1S(=O)(=O)Nc1ccc(-c2ccc(C(N)=O)cc2)c(Cl)c1 [Compound 314, 4-[2-chloro-4-[(7-methyl-2,3-dioxo-1,4-dihydroquinoxalin-6-yl)sulfonylamino]phenyl]benzamide] | – | 100 to 1000 | 100 to 1000 | –
32 | Cc1cc2[nH]c(=O)c(=O)[nH]c2cc1S(=O)(=O)Nc1ccc(-c2cccc(O)c2)c(C(F)(F)F)c1 [Compound 366, N-[4-(3-hydroxyphenyl)-3-(trifluoromethyl)phenyl]-7-methyl-2,3-dioxo-1,4-dihydroquinoxaline-6-sulfonamide] | – | 30 to 100 | < 30 | –
